Earlier results on four molecules are cited in patent publication US6821979B2, “Synergistic enhancement of cognitive ability” (Blanchette Rockefeller Neurosciences Institute, priority 2002, dated 2004).

The structures appear in SMILES notation.

For data set [1], the system named is carbonic anhydrase. The conditions noted are these: conscious animals; CNS administration; other sensory and/or locomotor behaviors not affected.
Data set [2] concerns carbonic anhydrase. The conditions noted are these: single dose; electroencephalogram during rapid-eye-movement sleep.
Data set [3] relates to carbonic anhydrase. The conditions noted are these: rats; CNS administration.
The conditions of data set [4]: theophylline alone; literature studies.

For the molecule `CC(=O)Nc1nnc(S(N)(=O)=O)s1` [acetazolamide], the spatial learning result in the data set on carbonic anhydrase [1] is on record as “impairs spatial learning”. Also, the “reduction of magnitudes of θ-wave frequency activity” value in the data set with carbonic anhydrase [2] is given as 50%.
As for `c1c[nH]cn1` [imidazole], in the data set on carbonic anhydrase [3], the “ability to learn a water-maze task and to recall the maze from memory” value is recorded as “significantly enhances”.
Regarding `N[C@@H](Cc1ccccc1)C(=O)O` [phenylalanine], the “ability to learn a water-maze task and to recall the maze from memory” value in the data set on carbonic anhydrase [3] is on record as “significantly enhances”.
With `Cn1c(=O)c2[nH]cnc2n(C)c1=O` [theophylline], the effect on cognition result in data set [4] is recorded as “insignificant”.
